Data taken from patent publication US20090221619A1, “NOVEL MATERIALS AND METHODS FOR THE PRODUCTION THEREOF” (SYNGENTA CROP PROTECTION, INC., priority 2005, published 2009).
Converted amounts (≈) assume the structure as drawn. Like-named read-outs stand apart in the source and are kept apart here.

How the values were obtained:
Type in all cases: cell-based
Aureobasidium pullulans [1] = test: MIC value generation: liquid culture assay on 24 well plates, solo ai; details: A. pullulans; for EC95: concentration for 95% activity estimated from graph; for MIC: Aureobasidium pullulans, rates 0-100 mg ai/l, mean values of n = 5, read-out: MIC Minimal inhibition concentration
Experimental: (§1) Stachybotrys chartarum, and Aureobasidium pullulans were separately cultivated on PDA media to […] sporulation. Spore suspensions were produced for each fungi.
(§2) Test method used: liquid culture assay on 24 well plates.
(§3) For solo (i.e. single) ai testing the formulated fungicide (100 ul) was filled into the 24 well plates (8 different rates: 100-0.05 mg ai/l final volume as described above) and 100 ul distilled water was added. Afterwards 800 ul of 0.3% PDA media was added to the plate. The spore suspension of the specific fungi was added to this media in advance containing approx. 100.000 spores/ml. The 24 well plates were sealed and incubated at 24° C.
(§4) Dependent on the growth prosperities of each organisms, the evaluation was done after 3 to 6 days, when the surface of the check well was covered with mycelium. The evaluation was performed by assessing the growth of the fungi related to the check growth. The results are expressed as % activity relative to the check (values of 0-100% growth). Afterwards the results were converted in % growth inhibition. EC95 values and also MIC (minimal inhibition concentration) values were derived for each compound.
(§5) For each solo compound a graph was drawn of percentage inhibition against the concentration of the fungicide. From this graph the concentration of the fungicide required to achieve 95% activity was estimated. Also the concentration that gave the minimum inhibition concentration was derived as MIC value.

Stachybotrys chartarum [2] = test: as above; details: S. chartarum; for EC95: concentration for 95% activity estimated from graph; for MIC: Stachybotrys chartarum, rates 0-100 mg ai/l, mean values of n = 5, read-out: MIC Minimal inhibition concentration
Experimental: as §1, §2, §3, §4, §5

Aureobasidium pullulans [3] = test: Synergy testing of 2 way mixtures, liquid culture on 24 well plates (Colby); details: A. pullulans; for inhibition at 50 µg/mL: CDL 50 mg ai/l; for inhibition at 100 µg/mL: CDL 100 mg ai/l
Experimental: (§6) For synergism testing of the 2 way mixtures 100 ul of each fungicide were filled into the 24 well plates (8 different rates) and 800 ul of 0.3% PDA media containing the spore suspension was added (see above). Different ratios of the 2 fungicide rates were tested at the same time.
(§7) Stachybotrys chartarum and Aureobasidium pullulans were separately cultivated on PDA media to […] sporulation. Spore suspensions were produced for each fungi.
(§8) For the mixtures of different fungicides the synergism was calculated based on the Colby equation, which is described below: […]
(§9) The fungicidal action to be expected, We, for a given combination of two fungicides can be calculated as follows (see COLBY, S. R. “Calculating synergistic and antagonistic response of herbicide combinations”. Weeds 15, pages 20-22; 1967):
(§10) wherein: X=% activity in the case of treatment with the compound of formula I at rate x, in comparison with untreated control (=0%). Y=% activity in the case of treatment with a compound of formula II at rate y, in comparison with untreated control. We=expected activity (% activity in comparison with untreated control) after treatment with the compound of formula I and a compound of formula II at a rate of x+y kg of active ingredient.
(§11) If the activity actually observed is greater than the expected value We, there is a synergistic effect.
(§12) All rates below are expressed as mg ai/l (i.e. ppm).

Stachybotrys chartarum [4] = test: as above; details: S. chartarum
Experimental: as §6, §7, §8, §9, §10, §11, §12

[5] = PPZ 3.1 mg ai/l, read-out: inh % (PPZ alone)
[6] = CDL 12.5 mg ai/l, PPZ table, read-out: inh % (CDL alone)
[7] = CCZ table, read-out: inh % (CDL alone)
[8] = DFZ table, read-out: inh % (CDL alone)
[9] = PPZ table, read-out: inh % (CDL alone)
[10] = TBZ table, read-out: inh % (CDL alone)

`CC1COC(Cn2cncn2)(c2ccc(Oc3ccc(Cl)cc3)cc2Cl)O1` (stereo not drawn) [DFZ, Difenoconazole] gave an EC95 (Aureobasidium pullulans [1]) of 8 mg ai/l, an MIC (Aureobasidium pullulans [1]) of 12.5 µg/mL (≈ 30.8 µM) and an EC95 (Stachybotrys chartarum [2]) of 2.7 mg ai/l. The MIC (Stachybotrys chartarum [2]) was 3.1 µg/mL (≈ 7.63 µM), the inhibition at 0.8 µg/mL (Aureobasidium pullulans [3]; DFZ 0.8 mg ai/l, read-out: inh % (DFZ alone)) was 90% and the inhibition at 1.6 µg/mL (Aureobasidium pullulans [3]; DFZ 1.6 mg ai/l, read-out: inh % (DFZ alone)) was 90%. The inhibition at 3.1 µg/mL (Aureobasidium pullulans [3]; DFZ 3.1 mg ai/l, read-out: inh % (DFZ alone)) was 70%.
For `CC(C1CC1)C(O)(Cn1cncn1)c1ccc(Cl)cc1` (stereo not drawn) [CCZ, Cyproconazole], the EC95 (Aureobasidium pullulans [1]) was 6.5 mg ai/l, the MIC (Aureobasidium pullulans [1]) was 12.5 µg/mL (≈ 42.8 µM) and the EC95 (Stachybotrys chartarum [2]) was over 100 mg ai/l. The MIC (Stachybotrys chartarum [2]) was over 100 µg/mL, the inhibition at 1.6 µg/mL (Aureobasidium pullulans [3]; CCZ 1.6 mg ai/l, read-out: inh % (CCZ alone)) was 70% and the inhibition at 3.1 µg/mL (Aureobasidium pullulans [3]; CCZ 3.1 mg ai/l, read-out: inh % (CCZ alone)) was 90%. The inhibition at 100 µg/mL (Stachybotrys chartarum [4]; CCZ 100 mg ai/l, read-out: inh % (CCZ alone)) was 50%.
`c1ccc2[nH]c(-c3cscn3)nc2c1` [TBZ, Thiabendazole] was tested, and the EC95 (Aureobasidium pullulans [1]) was 15 mg ai/l, the MIC (Aureobasidium pullulans [1]) was 50 µg/mL (≈ 248 µM) and the EC95 (Stachybotrys chartarum [2]) was 46 mg ai/l. The MIC (Stachybotrys chartarum [2]) was 50 µg/mL (≈ 248 µM) and the inhibition at 12.5 µg/mL (Aureobasidium pullulans [3]; TBZ 12.5 mg ai/l, read-out: inh % (TBZ alone)) was 90%.
Work on `CCCC1COC(Cn2cncn2)(c2ccc(Cl)cc2Cl)O1` (stereo not drawn) [PPZ, Propiconazole] yielded an EC95 (Aureobasidium pullulans [1]) of 36 mg ai/l, an MIC (Aureobasidium pullulans [1]) of 50 µg/mL (≈ 146 µM) and an EC95 (Stachybotrys chartarum [2]) of over 100 mg ai/l. It also gave an MIC (Stachybotrys chartarum [2]) of over 100 µg/mL, an inhibition at 3.1 µg/mL (Aureobasidium pullulans [3]; [5]) of 70% and an inhibition at 12.5 µg/mL (Aureobasidium pullulans [3]; PPZ 12.5 mg ai/l, read-out: inh % (PPZ alone)) of 70%. For the same molecule, the inhibition at 0.2 µg/mL (Stachybotrys chartarum [4]; PPZ 0.2 mg ai/l, read-out: inh % (PPZ alone)) was 0%, the inhibition at 1.6 µg/mL (Stachybotrys chartarum [4]; PPZ 1.6 mg ai/l, read-out: inh % (PPZ alone)) was 0% and the inhibition at 3.1 µg/mL (Stachybotrys chartarum [4]; [5]) was 10%.
Work on `Cc1cc(C2CC2)nc(Nc2ccccc2)n1` [CDL, Cyprodinil] yielded an EC95 (Aureobasidium pullulans [1]) of over 100 mg ai/l, an MIC (Aureobasidium pullulans [1]) of over 100 µg/mL and an EC95 (Stachybotrys chartarum [2]) of 46 mg ai/l. It also gave an MIC (Stachybotrys chartarum [2]) of 50 µg/mL (≈ 222 µM), an inhibition at 0.8 µg/mL (Aureobasidium pullulans [3]; CDL 0.8 mg ai/l, DFZ table, read-out: inh % (CDL alone)) of 0% and an inhibition at 1.6 µg/mL (Aureobasidium pullulans [3]; CDL 1.6 mg ai/l, CCZ table, read-out: inh % (CDL alone)) of 10%. It also gave an inhibition at 1.6 µg/mL (Aureobasidium pullulans [3]; CDL 1.6 mg ai/l, DFZ table, read-out: inh % (CDL alone)) of 10%, an inhibition at 1.6 µg/mL (Aureobasidium pullulans [3]; CDL 1.6 mg ai/l, PPZ table, read-out: inh % (CDL alone)) of 10% and an inhibition at 1.6 µg/mL (Aureobasidium pullulans [3]; CDL 1.6 mg ai/l, TBZ table, read-out: inh % (CDL alone)) of 10%. It also gave an inhibition at 3.1 µg/mL (Aureobasidium pullulans [3]; CDL 3.1 mg ai/l, DFZ table, read-out: inh % (CDL alone)) of 10%, an inhibition at 3.1 µg/mL (Aureobasidium pullulans [3]; CDL 3.1 mg ai/l, PPZ table, read-out: inh % (CDL alone)) of 10% and an inhibition at 3.1 µg/mL (Aureobasidium pullulans [3]; CDL 3.1 mg ai/l, TBZ table, read-out: inh % (CDL alone)) of 10%. It also gave an inhibition at 12.5 µg/mL (Aureobasidium pullulans [3]; CDL 12.5 mg ai/l, CCZ table, read-out: inh % (CDL alone)) of 30%, an inhibition at 12.5 µg/mL (Aureobasidium pullulans [3]; CDL 12.5 mg ai/l, DFZ table, read-out: inh % (CDL alone)) of 30% and an inhibition at 12.5 µg/mL (Aureobasidium pullulans [3]; [6]) of 30%. It also gave an inhibition at 12.5 µg/mL (Aureobasidium pullulans [3]; CDL 12.5 mg ai/l, TBZ table, read-out: inh % (CDL alone)) of 30%, an inhibition at 50 µg/mL (Aureobasidium pullulans [3]; [7]) of 30% and an inhibition at 50 µg/mL (Aureobasidium pullulans [3]; [8]) of 30%. For the same molecule, the inhibition at 50 µg/mL (Aureobasidium pullulans [3]; [9]) was 30%, the inhibition at 50 µg/mL (Aureobasidium pullulans [3]; [10]) was 50% and the inhibition at 100 µg/mL (Aureobasidium pullulans [3]; [7]) was 30%. The inhibition at 100 µg/mL (Aureobasidium pullulans [3]; [8]) was 30%, the inhibition at 100 µg/mL (Aureobasidium pullulans [3]; [9]) was 30% and the inhibition at 100 µg/mL (Aureobasidium pullulans [3]; [10]) was 50%. For the same molecule, the inhibition at 3.1 µg/mL (Stachybotrys chartarum [4]; CDL 3.1 mg ai/l, CCZ table, read-out: inh % (CDL alone)) was 0% and the inhibition at 12.5 µg/mL (Stachybotrys chartarum [4]; [6]) was 70%.
